Assays:
[1] = system: rat spinal cord injury model; test: Hind limb motor function (BBB scale) in rat spinal cord injury model, crush method with forceps; format: in vivo; details: 60 μg/animal into the dura, seventh day after spinal cord injury, compared with physiological saline-administered group
Protocol: (§1) A spinal cord injury model (crush model with forceps) was prepared as described below. Twelve-week-old male Wistar rats were used as experimental animals. The animals were shaved from neck to hip with an electric clipper under pentobarbital anesthesia (50 mg/kg body weight) and the skin was cleansed with 70% ethanol and Isodine (product of Meiji Seika Kaisha, Ltd.). After dorsal skin incision, the thoracic spine from T5 to T10 was exposed, the sixth thoracic spine (T6 thoracic spine) was subjected to hemi-laminectomy, and a small incision was made on the dura. Following local anesthesia with Xylocaine (Astra Zeneca), a forceps (with the tip trimmed to 0.3 mm) was inserted at the position of T6 until its tip reached the vertebral body, and the spinal cord was crushed by sandwiching it from both sides for 10 sec. […]
After injury of the spinal cord, the hind limb motor function was assessed daily for 7 days by two independent blind examiners according to the method of Basso et al. (refer to Basso D M et al (1995), (1996)) using Basso-Beeattie-Bresnahan (BBB) Scale, and their average score was taken as a final assessment score. […]
The BBB score was evaluated using Tukey's nonparametric multiple comparison test.

[2] = system: rat spinal cord injury model; test: Spinal cord evoked potential (SCEP) in rat spinal cord injury model, crush method with forceps; format: in vivo; details: 60 μg/animal into the dura, seventh day after spinal cord injury, compared with saline-administered group
Protocol: as §1
On the seventh day after the injury of the spinal cord, endotracheal intubation was performed into the experimental animal under halothane anesthesia (4.0% at the beginning, 1.0% during maintenance). […] Catheter electrodes were inserted into the experimental animal from the space between the second/third cervical vertebrae and the space between the 13th thoracic vertebra/first lumbar vertebra, and spinal cord evoked potential (SCEP) was measured with an electromyograph (Counterpoint, Dantec) after applying a supramaximal stimulus (stimulus frequency; 1 Hz, duration; 0.05 msec). […]

[3] = system: interleukin-12 (IL-12); details: reported by Asari et al. (Xu H et al. (2005)); cited from earlier work
[4] = system: MRL-lpr/lpr mouse; details: administration of L4; Xu H et al. (2005); cited from earlier work

In the case of `CC(=O)N[C@H]1C(O)O[C@H](COS(=O)(=O)O)[C@@H](O[C@@H]2O[C@H](COS(=O)(=O)O)[C@H](O)[C@H](O)[C@H]2O)[C@@H]1O` (stereo partly drawn) [L4, Gal(6S)β1-4GlcNAc(6S)], the “hind limb motor function (BBB score)” value [1] is listed as “significant recovery in hind limb motor function (P<0.001)”, the “spinal cord evoked potential (SCEP) amplitude” value [2] is listed as “a tendency for a recovery in the SCEP amplitude” and the “effect on interleukin-12 (IL-12) expression” value [3] is listed as “has an inhibitory effect on interleukin-12 (IL-12) expression”. The “IL-12 concentration in the blood” value [4] was “reduces IL-12 concentration in the blood”, the “cell death of T lymphocytes” value [4] was “induces cell death of T lymphocytes” and the “size of lymphatic organs (lymph node and spleen)” value [4] was “causes shrinking of lymphatic organs”.

Source: US20070167399A1, “Therapeutic drug for traumatic neural disease (disorder) and/or motor function disorder” (Glycoscience Laboratories, Inc., priority 2006, published 2007)
